tested on: S. mutans bacterial suspension (ATCC 25175); test: Direct contact test (DCT) in bonding resin R2; type: cell-based; details: 1% by weight in resin R2
Method: The DCT test is based on the turbidimetric determination of bacterial growth in 96-well microplates.
On the wall of each well, 15 μL of the resin to be tested are polymerized for 40 s, using a VALO® Grand LED curing light (Ultradent, Milan, Italy) in standard mode (1000 mW/cm^2, 2 maximum of emission in the ranges of wavelengths 395-415 nm and 440-480 nm);
In this way the side walls of the wells are coated with the polymerized material under test. The wells are then washed with phosphate buffered saline (PBS) before inoculating them with bacteria. Keeping the plate in vertical position, 10 μL of S. mutans bacterial suspension (ATCC 25175) in brain heart infusion medium (BHI) from an o/n culture, is then deposited on the layer of material present on the side walls of the wells. The plate is held upright for 1 hour to allow direct contact between bacteria and the cured material. 200 μL culture broth is then added to each of the wells with gentle mixing. The microplate is then placed in the chamber of a spectrophotometer for ELISA plates reading at 37° C. and the optical density in each well is measured at 600 nm at regular intervals (every 30 minutes for 18 hours). The whole experiment is conducted under aseptic conditions and is repeated on three microplates to ensure reproducibility of the result. 24 wells for each microplate were tested for each sample.
The bactericidal properties of the compounds according to Examples 1, 5, 6 and 7 within a reference bonding resin called R2 were tested using the “Direct contact test (DCT)” method described above. As a negative reference, the reference bonding resin was used without adding compounds according to the invention.
The reference resin called R2 has the following composition (% by weight): • 70% Bis-GMA (bisphenol A glycidyl dimethacrylate, CAS 1565-94-2, Sigma-Aldrich); • 28.75% TEGDMA (triethylene glycol dimethacrylate, CAS 109-16-0, Sigma-Aldrich); • 0.25% CQ (Camphorquinone, CAS 10373-78-1, Sigma-Aldrich); • 1% EDMAD (ethyl-4-dimethylamino benzoate, CAS 10287-53-3, Sigma-Aldrich) and was diluted with 20% by weight of EtOH for use.
For the tests execution, different quantities of the compounds according to examples 1, 5, 6 and 7 were added to the resin R2 in a quantity range from 0.1 to 10% by weight. The homogeneity of the material to be tested was ensured before application in the wells by carrying out a sonication (50%, 5 min) and mixing with Vortex (800 rpm, 5 min) of the various resins added with the compound according to the invention.

With C=C(C)C(=O)OCC[N+](CC)(CC)CCCCCCCCCCCC[N+](CC)(CC)CCOC(=O)C(=C)C.[Br-].[Br-] [Example 5] the “inhibition of bacterial survival by contact (optical density)” value was “able to inhibit bacterial survival by contact”.
In the case of C=C(C)C(=O)NCc1cc[n+](CCCCCCCCCCCC[n+]2ccc(CNC(=O)C(=C)C)cc2)cc1.[Br-].[Br-] [Example 7], the “inhibition of bacterial survival by contact (optical density)” value is reported as “able to inhibit bacterial survival by contact”.

tested on: E. coli (ATCC25922); test: Determination of the minimum inhibitory concentration (MIC); type: cell-based; details: Escherichia coli
Method: (§1) A colony of bacterium taken from agar plate is inoculated in Brain Hearth Infusion medium (BHI) and grown overnight at 37° C. The next day, the bacteria are diluted in fresh medium containing the phenol red indicator, up to a density of 10^6 bacteria/mL.
(§2) A stock solution of 2 mg/mL of compound is prepared in BHI medium containing phenol red.
(§3) In a 96-well plate, the compound stock solution is diluted serially (the concentration is halved at each step) to obtain the following final concentrations after addition of the bacteria suspension: 1 mg/mL; 0.5 mg/mL; 0.25 mg/mL; 0.125 mg/mL; 0.065 mg/mL; 0.032 mg/mL; 0.016 mg/mL; 0.008 mg/mL; 0.004 mg/mL; 0.002 mg/mL; 0.001 mg/mL. A compound-free medium is used as a growth control. A volume of bacterial suspension equal to 0.5*10^6 bacteria/mL is added to each well containing the compound and the control. The dish is incubated at 37° C. for 24 hours. Bacterial growth in each well is detected by the phenol red, which turns from red to yellow following acidification of the medium induced by bacterial metabolism. The lowest concentration of the compound causing no evident color change corresponds to the MIC.
(§4) The compounds according to Examples 1, 3, 5, 6, and 7 were tested on bacterial strains different from S. mutans with the same methods described above, obtaining the MIC and MBC values reported in Table 2.

In order of falling MIC:
1. C=C(C)C(=O)OCC[N+](CC)(CC)CCCCCCCCCCCC[N+](CC)(CC)CCOC(=O)C(=C)C.[Br-].[Br-] [Example 5]  78 µg/mL
2. C=C(C)C(=O)NCc1cc[n+](CCCCCCCCCCCC[n+]2ccc(CNC(=O)C(=C)C)cc2)cc1.[Br-].[Br-] [Example 7]  2.5 µg/mL

tested on: S. Aureus (ATCC 25923); test: as above; type: cell-based; details: Staphylococcus aureus, ATCC25923
Method: as §1, §2, §3, §4

In order of falling MIC:
1. C=C(C)C(=O)OCC[N+](CC)(CC)CCCCCCCCCCCC[N+](CC)(CC)CCOC(=O)C(=C)C.[Br-].[Br-] [Example 5]  20 µg/mL
2. C=C(C)C(=O)NCc1cc[n+](CCCCCCCCCCCC[n+]2ccc(CNC(=O)C(=C)C)cc2)cc1.[Br-].[Br-] [Example 7]  2.5 µg/mL

tested on: S. Sanguis (ATCC 10556); test: as above; type: cell-based; details: not given
Method: as §1, §2, §3, §4

In order of falling MIC:
1. C=C(C)C(=O)OCC[N+](CC)(CC)CCCCCCCCCCCC[N+](CC)(CC)CCOC(=O)C(=C)C.[Br-].[Br-] [Example 5]  20 µg/mL
2. C=C(C)C(=O)NCc1cc[n+](CCCCCCCCCCCC[n+]2ccc(CNC(=O)C(=C)C)cc2)cc1.[Br-].[Br-] [Example 7]  10 µg/mL

tested on: S. Mitis (ATCC 49456); test: as above; type: cell-based; details: Streptococcus mitis, ATCC49456
Method: as §1, §2, §3, §4

In order of falling MIC:
1. C=C(C)C(=O)OCC[N+](CC)(CC)CCCCCCCCCCCC[N+](CC)(CC)CCOC(=O)C(=C)C.[Br-].[Br-] [Example 5]  39 µg/mL
2. C=C(C)C(=O)NCc1cc[n+](CCCCCCCCCCCC[n+]2ccc(CNC(=O)C(=C)C)cc2)cc1.[Br-].[Br-] [Example 7]  20 µg/mL

tested on: primary cells from human dental pulp; test: Determination of the cytotoxicity (MTS assay); type: cell-based; details: 1 μg/mL, 24 h
Method: Tested cells: primary from dental pulp in complete high glucose DMEM medium+1 mg ascorbic acid, seeded in 96-well dishes;
Cell viability detection method: MTS assay from Promega (CellTiter 96® AQueous One Solution Cell Proliferation Assay) colorimetric metabolic assay that allows to evaluate variations in the number of cells being a dye reduced by cellular dehydrogenases. The greater the number of cells, the greater the amount of reduced compound;
Execution time: 24 hours and 72 hours from treatment;
Negative control: cells seeded in complete DMEM medium (CNT) are used;
Number of samples: for 24 hours, 6 samples of each type; for 72 hours 8 samples of each type.
Procedure: Cells (6000/well) are seeded on a 96-well dish to form a monolayer at approximately 40% confluence. After 24 hours the medium is replaced by a medium in which the compound has previously been solubilized, sterilized by 0.22 micron filtration. Growth medium alone is used as a negative control (CNT). At the following 24 and 72 hours the colorimetric test is performed. The absorbance values for each sample are averaged and the standard deviation calculated. The percent viability is calculated on the negative control.
The compounds according to Examples 1, 5, 6, and 7 were tested in order to evaluate their cytotoxicity on primary cells from human dental pulp according to the “Determination of cytotoxicity” method described above, obtaining the values reported respectively in the following Tables 3, 4, 5, and 6. Cells were extracted from healthy third molars of patients after informed consent (Authorization Single Regional Committee FVG, study ID 2433, 29 Aug. 2018). After extraction, the stem cell nature was ascertained by evaluating the expression of the positive markers CD 90, CD 73, CD 29 and the negative markers CD 14, CD 34 and CD 45.

In order of rising “% Viability 24 h” value:
1. C=C(C)C(=O)NCc1cc[n+](CCCCCCCCCCCC[n+]2ccc(CNC(=O)C(=C)C)cc2)cc1.[Br-].[Br-] [Example 7]  110.8 ± 15.9%
2. C=C(C)C(=O)OCC[N+](CC)(CC)CCCCCCCCCCCC[N+](CC)(CC)CCOC(=O)C(=C)C.[Br-].[Br-] [Example 5]  124.2 ± 6.3%

same assay, conditions: 1 μg/mL, 72 h

In order of rising “% Viability 72 h” value:
1. C=C(C)C(=O)OCC[N+](CC)(CC)CCCCCCCCCCCC[N+](CC)(CC)CCOC(=O)C(=C)C.[Br-].[Br-] [Example 5]  72.6 ± 16.5%
2. C=C(C)C(=O)NCc1cc[n+](CCCCCCCCCCCC[n+]2ccc(CNC(=O)C(=C)C)cc2)cc1.[Br-].[Br-] [Example 7]  97.3 ± 17.5%

same assay, conditions: 10 μg/mL, 24 h

In order of rising “% Viability 24 h” value:
1. C=C(C)C(=O)NCc1cc[n+](CCCCCCCCCCCC[n+]2ccc(CNC(=O)C(=C)C)cc2)cc1.[Br-].[Br-] [Example 7]  105.9 ± 11.9%
2. C=C(C)C(=O)OCC[N+](CC)(CC)CCCCCCCCCCCC[N+](CC)(CC)CCOC(=O)C(=C)C.[Br-].[Br-] [Example 5]  119.2 ± 6.8%

same assay, conditions: 10 μg/mL, 72 h

In order of falling “% Viability 72 h” value:
1. C=C(C)C(=O)NCc1cc[n+](CCCCCCCCCCCC[n+]2ccc(CNC(=O)C(=C)C)cc2)cc1.[Br-].[Br-] [Example 7]  100.6 ± 17.7%
2. C=C(C)C(=O)OCC[N+](CC)(CC)CCCCCCCCCCCC[N+](CC)(CC)CCOC(=O)C(=C)C.[Br-].[Br-] [Example 5]  69.7 ± 17.0%

same assay, conditions: 50 μg/mL, 24 h

In order of falling “% Viability 24 h” value:
1. C=C(C)C(=O)NCc1cc[n+](CCCCCCCCCCCC[n+]2ccc(CNC(=O)C(=C)C)cc2)cc1.[Br-].[Br-] [Example 7]  96.1 ± 10.5%
2. C=C(C)C(=O)OCC[N+](CC)(CC)CCCCCCCCCCCC[N+](CC)(CC)CCOC(=O)C(=C)C.[Br-].[Br-] [Example 5]  83.4 ± 4.5%

same assay, conditions: 50 μg/mL, 72 h

In order of rising “% Viability 72 h” value:
1. C=C(C)C(=O)OCC[N+](CC)(CC)CCCCCCCCCCCC[N+](CC)(CC)CCOC(=O)C(=C)C.[Br-].[Br-] [Example 5]  70.8 ± 17.8%
2. C=C(C)C(=O)NCc1cc[n+](CCCCCCCCCCCC[n+]2ccc(CNC(=O)C(=C)C)cc2)cc1.[Br-].[Br-] [Example 7]  86.3 ± 16.4%

same assay, conditions: 100 μg/mL, 24 h

In order of rising “% Viability 24 h” value:
1. C=C(C)C(=O)NCc1cc[n+](CCCCCCCCCCCC[n+]2ccc(CNC(=O)C(=C)C)cc2)cc1.[Br-].[Br-] [Example 7]  91.7 ± 12.0%
2. C=C(C)C(=O)OCC[N+](CC)(CC)CCCCCCCCCCCC[N+](CC)(CC)CCOC(=O)C(=C)C.[Br-].[Br-] [Example 5]  95.9 ± 7.2%

same assay, conditions: 100 μg/mL, 72 h

In order of rising “% Viability 72 h” value:
1. C=C(C)C(=O)OCC[N+](CC)(CC)CCCCCCCCCCCC[N+](CC)(CC)CCOC(=O)C(=C)C.[Br-].[Br-] [Example 5]  68.8 ± 17.5%
2. C=C(C)C(=O)NCc1cc[n+](CCCCCCCCCCCC[n+]2ccc(CNC(=O)C(=C)C)cc2)cc1.[Br-].[Br-] [Example 7]  71.8 ± 13.4%

same assay, conditions: 500 μg/mL, 24 h

In order of rising “% Viability 24 h” value:
1. C=C(C)C(=O)OCC[N+](CC)(CC)CCCCCCCCCCCC[N+](CC)(CC)CCOC(=O)C(=C)C.[Br-].[Br-] [Example 5]  2.5 ± 1.0%
2. C=C(C)C(=O)NCc1cc[n+](CCCCCCCCCCCC[n+]2ccc(CNC(=O)C(=C)C)cc2)cc1.[Br-].[Br-] [Example 7]  91.9 ± 16.8%

same assay, conditions: 500 μg/mL, 72 h

C=C(C)C(=O)NCc1cc[n+](CCCCCCCCCCCC[n+]2ccc(CNC(=O)C(=C)C)cc2)cc1.[Br-].[Br-] [Example 7] was tested, and the “% Viability 72 h” value was 26.5 ± 5.1%.

same assay, conditions: 1 mg/mL, 24 h

In the case of C=C(C)C(=O)NCc1cc[n+](CCCCCCCCCCCC[n+]2ccc(CNC(=O)C(=C)C)cc2)cc1.[Br-].[Br-] [Example 7], the “% Viability 24 h” value is reported as 49.1 ± 8.1%.

same assay, conditions: 1 mg/mL, 72 h

With C=C(C)C(=O)NCc1cc[n+](CCCCCCCCCCCC[n+]2ccc(CNC(=O)C(=C)C)cc2)cc1.[Br-].[Br-] [Example 7] the “% Viability 72 h” value was 5.0 ± 2.3%.

same assay, conditions: primary dental pulp cells

In order of rising “maximum (tested) non-cytotoxic concentration” value:
1. C=C(C)C(=O)NCc1cc[n+](CCCCCCCCCCCC[n+]2ccc(CNC(=O)C(=C)C)cc2)cc1.[Br-].[Br-] [Example 7]  50 µg/mL
2. C=C(C)C(=O)OCC[N+](CC)(CC)CCCCCCCCCCCC[N+](CC)(CC)CCOC(=O)C(=C)C.[Br-].[Br-] [Example 5]  100 µg/mL

— US20220402872A1, “PHOTOPOLYMERIZABLE ANTIBACTERIAL MONOMER” (UNIVERSITA' DEGLI STUDI DI TRIESTE, priority 2019, published 2022)
